Results on 19 compounds are retold here after patent publication US8889696B2, “Substituted pyrido[2,3-d]pyrimidin-7(8H)-ones and therapeutic uses thereof” (Temple University—Of The Commonwealth System Of Higher …, priority 2009, dated 2014).

One series has as its system CD-1 female mice. The series can be described thus: Toxicity study in mice. It is filed as in vivo. The note with it: female, CD-1, mouse, in vivo, 7 days. Here is the method:
. DMSO was used as a placebo. Three CD-1 female mice were used per group. Drugs were administered intraperitoneally at 100 mg/kg. Viability, signs of toxicity and body weight were monitored over the next 7 days. […]. […] Comparative body weight studies could not be carried out for this compound due to the early death of animals. These observations agree with the known toxicity of BI-2536. […]. Following this treatment, 100% survival for >10 days after injection was observed. […]

Series [1] concerns K562 (chronic myelogenous leukemia). The series is described as follows: Effect on tumor cell lines (Latham assay), K562. Conditions: Homo sapiens; K562 cells, examined 96 hours after treatment; read-out: Potencies (IC50) K 562. It is filed as cell-based. Here is the method:
(§1) The plated cells were treated 24 hours later with a compound of the invention dissolved in DMSO at multiple concentrations ranging from 0.01 μM to 100 μM. […] When necessary, the total number of viable cells was determined by trypsinizing the wells and counting the number of viable cells, as determined by trypan blue exclusion, using a hemacytometer.

The test system of the next series is DU145 (prostate cancer). The series is described as follows: Effect on tumor cell lines (Latham assay), DU145. Format: cell-based. Conditions: Homo sapiens, DU-145; DU145 cells, examined 96 hours after treatment; read-out: Potencies (IC50) DU 145. Here is the method: as §1
The next series concerns HFL (human fibroblast). The series is described as follows: Normal cell killing, HFL. Conditions: concentration 5-fold higher than a concentration that resulted in tumor cell killing. Format: cell-based. Here is the method:
(§2) The effect of the compounds of the invention on tumor cells was determined by the assay described by Latham et al., Oncogene 12:827-837 (1996). Tumor cells K562 (chronic myelogenous leukemia; leukemia cell line +ve for Bcr-Abl) or DU145 (prostate cancer) were plated in 12-well dishes at a cell density of 2.5×10^4 cells well. The plated cells were treated 24 hours later with a compound of the invention dissolved in DMSO at multiple concentrations ranging from 0.01 μM to 100 μM. The plates were examined 96 hours later under an inverted microscope, Olympus CK-2 using an 10× objective, and compound activity was noted by physical observation. When necessary, the total number of viable cells was determined by trypsinizing the wells and counting the number of viable cells, as determined by trypan blue exclusion, using a hemacytometer.
(§3) Utilizing a similar procedure, the compounds of Example 12 and Example 40 were tested on two normal cell lines: HFL (human fibroblast) and hMSC (human marrow stem cell).

The subject of series [2] is hMSC (human marrow stem cell). The series is described as follows: Normal cell killing, hMSC. Format: cell-based. The note with it: concentration 5-fold higher than a concentration that resulted in tumor cell killing. Here is the method: as §2, §3
In another series the target is PLK2 (Homo sapiens (Human), UniProt Q9NYY3). The series can be described thus: Plk kinase inhibition assay (32P-ATP, casein). Format: biochemical. Conditions: 5 μM ATP, FIG. 1. On the procedure: (§4) Ten ng of recombinant Plk1, Plk2, Plk3 or Plk4 kinase were incubated with the indicated concentrations of compound for 30 minutes at room temperature. Kinase reactions were started by the addition of substrate mix (5 μM ATP, 10 μCi γ^32P-ATP, 1 μg α-casein, 10 mM MgCl2) for 15 minutes at 30° C. Reactions were stopped by 3% phosphoric acid, spotted on PE30 filtermat, washed, dried and subjected to scintillation counting. Data is plotted (after background subtraction) using GraphPad Prism4 software as a non-linear regression plot with variable slope to obtain IC50 values.
(§5) Kinase reactions were started by the addition of substrate mix (5 μM ATP, 10 μCi γ^32P-ATP, 1 μg α-casein, 10 mM MgCl2) for 15 minutes at 30° C. Reactions were stopped by 3% phosphoric acid, spotted on PE30 filtermat, washed, dried and subjected to scintillation counting. Data is plotted (after background subtraction) using GraphPad Prism4 software as a non-linear regression plot with variable slope to obtain IC50 values.

The next series addresses recombinant Plk3 (Homo sapiens (Human), UniProt Q9H4B4). The series can be described thus: Plk kinase inhibition assay (32P-ATP, casein). The note with it: 5 μM ATP, FIG. 1. Format: biochemical. On the procedure: as §4, §5
The next series has as its target recombinant Plk1 (Homo sapiens (Human), UniProt P53350).

One may read the IC50 as the concentration at which inhibition is half-maximal. By melting point is commonly meant the temperature, or range, at which the solid turns liquid.

Sequence of recombinant Plk1 (P53350 whole entry): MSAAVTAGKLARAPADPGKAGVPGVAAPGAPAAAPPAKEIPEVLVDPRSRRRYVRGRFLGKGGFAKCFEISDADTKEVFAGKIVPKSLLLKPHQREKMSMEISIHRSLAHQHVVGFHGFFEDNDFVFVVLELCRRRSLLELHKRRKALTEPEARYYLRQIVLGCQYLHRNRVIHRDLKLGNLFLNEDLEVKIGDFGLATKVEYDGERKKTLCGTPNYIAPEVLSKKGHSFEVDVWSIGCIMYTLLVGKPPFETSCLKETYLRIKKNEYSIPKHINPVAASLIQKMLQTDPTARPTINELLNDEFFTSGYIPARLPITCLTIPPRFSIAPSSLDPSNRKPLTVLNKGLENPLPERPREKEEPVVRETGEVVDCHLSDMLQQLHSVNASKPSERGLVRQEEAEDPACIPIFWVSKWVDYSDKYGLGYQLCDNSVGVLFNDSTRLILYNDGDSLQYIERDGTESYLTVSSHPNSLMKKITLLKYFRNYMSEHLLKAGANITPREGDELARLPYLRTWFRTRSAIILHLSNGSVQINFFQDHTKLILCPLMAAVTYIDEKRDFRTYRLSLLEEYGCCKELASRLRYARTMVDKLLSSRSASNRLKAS
Sequence of recombinant Plk3 (Q9H4B4 whole entry): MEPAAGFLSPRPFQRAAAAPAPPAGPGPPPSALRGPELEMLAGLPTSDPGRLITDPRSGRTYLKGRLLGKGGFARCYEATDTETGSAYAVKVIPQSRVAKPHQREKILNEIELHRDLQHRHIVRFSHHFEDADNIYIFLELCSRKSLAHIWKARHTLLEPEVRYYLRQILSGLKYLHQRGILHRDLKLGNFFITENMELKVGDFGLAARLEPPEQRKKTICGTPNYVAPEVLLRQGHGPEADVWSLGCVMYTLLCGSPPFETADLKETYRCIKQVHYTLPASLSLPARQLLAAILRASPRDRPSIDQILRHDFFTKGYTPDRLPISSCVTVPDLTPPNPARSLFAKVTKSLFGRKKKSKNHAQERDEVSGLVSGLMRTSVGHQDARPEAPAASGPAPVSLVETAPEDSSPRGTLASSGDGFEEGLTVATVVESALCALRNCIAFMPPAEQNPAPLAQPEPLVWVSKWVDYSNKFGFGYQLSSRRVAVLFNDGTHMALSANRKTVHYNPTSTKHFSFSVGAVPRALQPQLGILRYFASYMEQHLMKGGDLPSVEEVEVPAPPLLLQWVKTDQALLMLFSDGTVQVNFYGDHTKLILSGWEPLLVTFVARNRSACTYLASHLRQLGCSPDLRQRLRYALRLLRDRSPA
Sequence of PLK2 (Q9NYY3 whole entry): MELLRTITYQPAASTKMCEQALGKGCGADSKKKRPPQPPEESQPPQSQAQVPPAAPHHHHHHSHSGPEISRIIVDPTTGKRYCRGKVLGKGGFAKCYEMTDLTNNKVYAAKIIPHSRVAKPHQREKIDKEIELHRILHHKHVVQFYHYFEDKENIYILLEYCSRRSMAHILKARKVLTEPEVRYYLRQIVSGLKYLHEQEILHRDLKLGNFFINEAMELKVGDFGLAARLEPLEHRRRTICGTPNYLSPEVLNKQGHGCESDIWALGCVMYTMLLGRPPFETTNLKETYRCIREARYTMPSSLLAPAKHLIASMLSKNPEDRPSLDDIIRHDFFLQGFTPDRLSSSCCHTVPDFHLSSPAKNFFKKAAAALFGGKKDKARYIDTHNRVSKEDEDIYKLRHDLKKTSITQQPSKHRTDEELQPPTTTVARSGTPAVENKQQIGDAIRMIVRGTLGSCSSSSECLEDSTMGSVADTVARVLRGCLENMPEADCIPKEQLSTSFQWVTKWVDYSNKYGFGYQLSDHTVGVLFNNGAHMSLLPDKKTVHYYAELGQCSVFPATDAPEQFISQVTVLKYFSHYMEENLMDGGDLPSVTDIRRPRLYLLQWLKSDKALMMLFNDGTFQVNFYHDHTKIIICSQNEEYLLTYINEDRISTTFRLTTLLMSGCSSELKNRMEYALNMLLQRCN

As to `CC[C@@H]1C(=O)N(C)c2cnc(Nc3ccc(C(=O)NC4CCN(C)CC4)cc3OC)nc2N1C1CCCC1` [BI-2536, reference compound], the death of mice result in the series with CD-1 female mice was “two mice died within 24 hours while the third mouse died within 72 hours”.
`Cn1c(=O)c(S(=O)(=O)c2ccc(F)cc2)cc2cnc(Nc3cnc4[nH]ccc4c3)nc21` [Example 12, 2-(1H-pyrrolo[2,3-b]pyridin-5-ylamino)-6-(4-fluorophenylsulfonyl)-8-methylpyrido[2,3-d]pyrimidin-7(8H)-one]: the melting point lay within 274 to 280 °C. The IC50 in series [1] was less than 1 µM. For the same compound, the 50% inhibitory concentration (IC50) in the series on DU145 (prostate cancer) was less than 1 µM. In addition, the “killing of normal cells” value in the series on HFL (human fibroblast) is reported as “did not kill the normal cells”. Besides, the “killing of normal cells” value in series [2] is reported as “did not kill the normal cells”.
Consider `Cn1c(=O)c(S(=O)(=O)c2ccc(F)cc2F)cc2cnc(Nc3ccc4[nH]ncc4c3)nc21` [Example 40, 2-(1H-indazol-5-ylamino)-6-(2,4-difluorophenylsulfonyl)-8-methylpyrido[2,3-d]pyrimidin-7(8H)-one], for which the IC50 (in [1]; in the series with DU145 (prostate cancer)) was 10 to 25 µM throughout. For the same compound, the “killing of normal cells” value (in the series with HFL (human fibroblast); in series [2]) was “did not kill the normal cells” each time.
`CN1CCN(c2ccc(Nc3ncc4cc(S(=O)(=O)c5ccc(Cl)cc5)c(=O)n(C5CCCCC5)c4n3)cc2)CC1` [Example 50, 2-(4-(4-methylpiperazin-1-yl)phenylamino)-6-(4-chlorophenylsulfonyl)-8-cyclohexylpyrido[2,3-d]pyrimidin-7(8H)-one]: the melting point is 259 to 260 °C. The IC50 in [1] lay within 1 to 10 µM. For the same compound, in the series on DU145 (prostate cancer), the IC50 lay within 1 to 10 µM.
For `O=c1c(S(=O)(=O)c2ccc(Cl)cc2)cc2cnc(Nc3ccc4[nH]ccc4c3)nc2n1C1CCCCC1` [Example 51, 2-(1H-indol-5-ylamino)-6-(4-chlorophenylsulfonyl)-8-cyclohexylpyrido[2,3-d]pyrimidin-7(8H)-one], the melting point was 305 to 307 °C. Further, the concentration for half-maximal inhibition (IC50) in series [1] lay in the range of 10 to 25 µM. In the series on DU145 (prostate cancer), the IC50 fell in the range of 25 to 50 µM.
`O=c1c(S(=O)(=O)c2ccc(Cl)cc2)cc2cnc(Nc3ccc(N4CCOCC4)cc3)nc2n1C1CCCCC1` [Example 52, 6-(4-chlorophenylsulfonyl)-2-(4-morpholinophenylamino)-8-cyclohexylpyrido[2,3-d]pyrimidin-7(8H)-one]: the melting point fell in the range of 329 to 331 °C. Also, in [1], the IC50 lay in the range of 1 to 10 µM. Besides, in the series with DU145 (prostate cancer), the IC50 is 10 to 25 µM.
Taken in the same sequence, the figures for `O=c1c(S(=O)(=O)c2ccc(Cl)cc2)cc2cnc(Nc3cccc4[nH]ccc34)nc2n1C1CCCCC1` [Example 53, 2-(1H-indol-4-ylamino)-6-(4-chlorophenylsulfonyl)-8-cyclohexylpyrido[2,3-d]pyrimidin-7(8H)-one] were 300 to 302 °C, 10 to 25 µM and more than 100 µM.
Taken in the same sequence, the figures for `CCn1c(=O)c(S(=O)(=O)c2ccccc2)cc2cnc(Nc3ccc4[nH]ccc4c3)nc21` [Example 54, 2-(1H-indol-5-ylamino)-8-ethyl-6-(phenylsulfonyl)pyrido[2,3-d]pyrimidin-7(8H)-one] were more than 400 °C, less than 1 µM and 1 to 10 µM.
For `O=c1c(S(=O)(=O)c2ccccc2)cc2cnc(Nc3ccc4[nH]ccc4c3)nc2n1C1CCCC1` [Example 55, 2-(1H-indol-5-ylamino)-8-cyclopentyl-6-(phenylsulfonyl)pyrido[2,3-d]pyrimidin-7(8H)-one] the same measures were 272 to 273 °C, 1 to 10 µM and 1 to 10 µM.
`COc1ccc(Nc2ncc3cc(S(=O)(=O)c4ccccc4)c(=O)n(C4CCCC4)c3n2)cc1` [Example 56, 2-(4-methoxyphenylamino)-8-cyclopentyl-6-(phenylsulfonyl)pyrido[2,3-d]pyrimidin-7(8H)-one] came in with a melting point of 201 °C. The IC50 in series [1] lay in the range of 1 to 10 µM. For the same compound, the half-maximal inhibitory concentration (IC50) with DU145 (prostate cancer) is 25 to 50 µM.
For `O=c1c(S(=O)(=O)c2ccccc2)cc2cnc(N3CCN(c4ccc(C(F)(F)F)cn4)CC3)nc2n1C1CCCC1` [Example 57, 8-cyclopentyl-2-(4-(5-(trifluoromethyl)pyridin-2-yl)piperazin-1-yl)-6-(phenylsulfonyl)pyrido[2,3-d]pyrimidin-7(8H)-one] the same measures were 258 to 259 °C, 50 to 100 µM and 25 to 50 µM.
Taken in the same sequence, the figures for `CSc1ncc2cc(S(=O)(=O)c3ccc(Cl)cc3)c(=O)n(C3CCCC3)c2n1` [Example 60, 6-(4-chlorophenylsulfonyl)-8-cyclopentyl-2-(methylsulfanyl)pyrido[2,3-d]pyrimidin-7(8H)-one] were 222 to 223 °C, 50 to 100 µM and 50 to 100 µM.
Take `O=c1c(S(=O)(=O)c2ccccc2)cc2cnc(NC3CCCC3)nc2n1C1CCCC1` [Example 61, 8-cyclopentyl-2-(cyclopentylamino)-6-(phenylsulfonyl)pyrido[2,3-d]pyrimidin-7(8H)-one]: the melting point was 209 to 210 °C. Besides, the IC50 in [1] was more than 100 µM. Further, in the series on DU145 (prostate cancer), the 50% inhibitory concentration (IC50) is more than 100 µM.
As to `COc1cc(Nc2ncc3cc(S(=O)(=O)c4ccccc4)c(=O)n(C4CCCC4)c3n2)cc(OC)c1OC` [Example 62, 2-(3,4,5-trimethoxyphenylamino)-8-cyclopentyl-6-(phenylsulfonyl)pyrido[2,3-d]pyrimidin-7(8H)-one], the melting point lay within 119 to 120 °C. Moreover, the IC50 in series [1] fell in the range of 1 to 10 µM. Also, in the series with DU145 (prostate cancer), the IC50 was in the range of 1 to 10 µM.
As to `O=c1c(S(=O)(=O)c2ccccc2)cc2cnc(Nc3ccc(N4CCOCC4)cc3)nc2n1C1CCCC1` [Example 63, 2-(4-morpholinophenylamino)-8-cyclopentyl-6-(phenylsulfonyl)pyrido[2,3-d]pyrimidin-7(8H)-one], the melting point fell in the range of 221 to 222 °C. In addition, the IC50 in [1] is 10 to 25 µM. For the same compound, the 50% inhibitory concentration (IC50) in the series with DU145 (prostate cancer) fell in the range of 10 to 25 µM.
`CC(C)(C)OC(=O)N1CCN(c2ccc(Nc3ncc4cc(S(=O)(=O)c5ccccc5)c(=O)n(C5CCCC5)c4n3)nc2)CC1` [Example 65, 2-(5-(4-tert-butoxycarbonylpiperazin-1-yl)pyridin-2-ylamino)-8-cyclopentyl-6-(phenylsulfonyl)pyrido[2,3-d]pyrimidin-7(8H)-one] gave a melting point of 115 to 116 °C. For the same compound, the IC50 in series [1] lay in the range of 10 to 25 µM. Also, in the series with DU145 (prostate cancer), the IC50 is more than 100 µM.
Taken in the same sequence, the figures for `CSc1ncc2cc(S(=O)(=O)c3ccccc3)c(=O)n(C3CCCC3)c2n1` [Example 67, 8-cyclopentyl-2-(methylsulfanyl)-6-(phenylsulfonyl)pyrido[2,3-d]pyrimidin-7(8H)-one] were 184 to 185 °C, 50 to 100 µM and 50 to 100 µM.
For `CSc1ncc2cc(S(=O)(=O)c3ccccc3)c(=O)[nH]c2n1` [Example 68, 2-(methylsulfanyl)-6-(phenylsulfonyl)pyrido[2,3-d]pyrimidin-7(8H)-one], the melting point was 280 °C (dec.). Besides, the concentration for half-maximal inhibition (IC50) in [1] was more than 100 µM. The IC50 in the series with DU145 (prostate cancer) is more than 100 µM.
With `COC[C@H]1OC(=O)c2coc3c2[C@@]1(C)C1=C(C3=O)[C@@H]2CCC(=O)[C@@]2(C)C[C@H]1OC(C)=O` [Wortmanin, wortmanin, reference compound], at PLK2, the “inhibitory activity against PLK-2” value is on record as “nanomolar inhibitory activity”. In addition, the “inhibitory activity against PLK-3” value at recombinant Plk3 is “nanomolar inhibitory activity”. For the same compound, the “inhibitory activity against PLK-1” value at recombinant Plk1 is reported as “nanomolar inhibitory activity”.
